{
  "source": "patent US20070110685A1",
  "about": "“Combination therapy for the treatment of immunoinflammatory disorders” (priority 2005, published 2007)",
  "origin": "cited, not measured here",
  "data": [
    {"compound": "CO[C@H]1C[C@@H]2CC[C@@H](C)[C@@](O)(O2)C(=O)C(=O)N2CCCC[C@H]2C(=O)O[C@H]([C@H](C)C[C@@H]2CC[C@@H](O)[C@H](OC)C2)CC(=O)[C@H](C)/C=C(\\C)[C@@H](O)[C@@H](OC)C(=O)[C@H](C)C[C@H](C)/C=C/C=C/C=C/1C", "note": "[Rapamycin]", "values": [
      {"measurement": "absorption after oral administration", "result": "absorbed rapidly and completely"}
    ]}
  ]
}
